One experiment has as its system caspase-4. Kind of experiment: Selectivity of probes: caspase-4. Type of experiment: biochemical, human. Particulars: caspase-4 2 U/mL, 37 °C, 2 h, λex 510 nm, λem 585 nm. The text has this: The resin used for SPPS was purchased from GL Biochem (Shanghai, China). Lipopolysaccharide (LPS, L2630), Nigericin and ATP (11140965001) were purchased from Merck (Shanghai, China) and Invitrogen (Shanghai, China), respectively. Cell culture plates were sourced from Wuxi NEST Biotechnology. Recombinant human caspase-1, caspase-3, caspase-4, and caspase-8 were obtained from Abcam and MCE (Shanghai, China). Anti-cleaved caspase-1 antibody, anti-GAPDH antibody, and goat anti-Rabbit/anti-mouse lgG/HRP were purchased from CST (USA) and Beyotime […]
(Shanghai, China). […]
Medical College (ethical approval number ZJCLA-IACUC-20011003). […]
To investigate the sensitivity of the probes for caspase-1, varying concentration of caspase-1 (0, 0.2, 0.4, 0.6, 0.8, 1.0, 1.25, 1.5, 1.75, 2, 2.5, 3 U/mL) were incubated with FPy1 (5 μM), YPy1 (5 μM) and WPy1 (5 μM) respectively in caspase-1 assay buffer (50 mM HEPES, 50 mM NaCl, 0.1 % chaps, 5 % glycerol, 10 mM DTT, 10 mM EDTA) at 37 °C for 2 hours. Fluorescence spectra were recorded using Hitachi F-2700 spectrophotometer with an excitation at 510 nm (Photomultiplier voltage 700 V; Slit widths ex: 10 nm and em =5.0 nm). […] The limit of detection (LoD) was calculated from 3σ/k, in which σ represents the standard deviation of 15 blank measurements. […]
10 nm and em =5.0 nm). The fluorescence intensity of FPy1, YPy1 and WPy1 at 585 nm were plotted separately against […]

The test system of a further experiment is Cas-1 in THP-1 cells. Kind of experiment: Confocal fluorescence imaging of Cas-1 in THP-1 cells. Type of experiment: cell-based. The conditions noted are these: for intracellular fluorescence intensity, ATP stimulation / intracellular fluorescence intensity, Nig stimulation: LPS 1 μg/mL 4 h, probe 5 μM 1 h; for intracellular fluorescence intensity, ATP stimulation: then ATP 2 mM 0, 1, 2 h; for intracellular fluorescence intensity, Nig stimulation: then Nig 10 μM 0, 1, 2 h. The method, then:
To assess the capability of FPy1 and YPy1 to monitor endogenous Cas-1, the classic NLRP3 inflammasome-mediated Cas-1 activation model was established in THP-1 cells. THP-1 cells were initially stimulated with LPS (1 μg mL^−1) for 4 h to prime the production of NLRP3 inflammasome-associated proteins. Subsequently, the cells were stimulated with Nigericin (Nig, 10 μM) or ATP (2 mM) for various durations to induce the activation of Cas-1 and the pyroptosis-related pathway. The THP-1 cells were further stained with FPy1 or Ypy1 (5 μM) for 1 h and imaged (Fig. 3a). […] Western blot (WB) analysis confirmed that, regardless of whether Nig or ATP was used as the stimulant, the level of activated Cas-1 was consistent with the fluorescence imaging results (Fig. S8a–d). […] Therefore, FPy1 may be a more suitable candidate for monitoring low caspase-1 levels in subsequent imaging studies. […] To investigate the distribution of FPy1 within cells, THP-1 cells were co-stained with FPy1 and commercially available organelle-tracking dyes, including Mito-Tracker Green (mitochondria), Golgi-Tracker Green (Golgi apparatus), Lyso-Tracker Green (lysosomes) and ER-Tracker Green (endoplasmic reticulum). All dyes were imaged in the green fluorescence channel to avoid overlap with the red emission of FPy1 (Fig. 3f–i). […] The corresponding Pearson's correlation coefficients for mitochondria, Golgi apparatus, lysosomes, and endoplasmic reticulum were 0.4954, 0.4320, 0.5682, and 0.4448, respectively. […] To further confirm the specificity of FPy1 for Cas-1 imaging in living cells, THP-1 cells with Cas-1 knockdown via siRNA were constructed. […]
Intracellular imaging with FPy1 in THP-1 cells
THP-1 cells were seeded in dishes and cultured overnight. After stimulation with LPS (1 μg/mL in RPMI 1640 medium) for 4 hours, the cells were further treated with Nig (10 μM) or ATP (2 mM) for 0, 1, 2 hours. The medium was then replaced with fresh medium with FPy1 (5 μM), and cells were incubated at 37 °C for 1 hour before being washed twice […]
with PBS. […]
After washing, the THP-1 cells were separately incubated with commercially available dyes targeting mitochondria (Mito-Tracker Green), lysosomes (Lyso-Tracker Green), endoplasmic reticulum (ER-Tracker Green), and Golgi apparatus (Golgi-Tracker Green) for 30 minutes. […]
Nucleus pulposus spheroid cultivation […]
Intracellular imaging in nucleus pulposus cells and 3D cell spheroids
The primary nucleus pulposus cells or 3D cell spheroids were seeded in dishes and cultured overnight. […]

As to “–FLTDG– [FPy1, RhoB donor, hNR quencher]”, in the experiment on caspase-4, the “fluorescence response to caspase-4” value is on record as “almost no response”. The “fluorescence increase relative to YPy1” value with Cas-1 in THP-1 cells (2 h of Nig or ATP stimulation, probe 5 μM) is on record as “slightly higher than that of YPy1”. In the experiment with Cas-1 in THP-1 cells, the “intracellular fluorescence intensity, ATP stimulation” value is reported as “increased with prolonged stimulation time” and the “intracellular fluorescence intensity, Nig stimulation” value is given as “increased with prolonged stimulation time”.
As for “–YVADG– [YPy1, caspase-1-responsive FRET probe with recognition peptide –YVADG–; RhoB donor, hNR quencher]”, the “fluorescence response to caspase-4” value in the experiment with caspase-4 is listed as “almost no response”. In the experiment on Cas-1 in THP-1 cells, the “intracellular fluorescence intensity, ATP stimulation” value was “increased with prolonged stimulation time” and the “intracellular fluorescence intensity, Nig stimulation” value is given as “increased with prolonged stimulation time”.

(Values after article PMC12598616, “Design and optimization of caspase-1-responsive fluorescent probes for pyroptosis imaging and anti-pyroptosis drug screening” (Chemical Science, 2025).)
